Entries after “also recorded” stand apart in the source; their conditions may differ.
Legend:
[1] = test system: TNFβ, TNFα, IL-1α, MIP-1α and TGF-β1 mRNA; test: RNase protection assay, cytokine probe set, cortex; assay type: in vivo, mice; conditions: 24 h
Description: (§1) Food and water were available ad libitum.
(§2) Based upon earlier studies with TMT exposure (Bruccoleri et al., 1998, 1999), Rnase protection assays were conducted at 24-h post-TMT. Multiprobe sets were used for simultaneous detection of mRNAs as previously described (Hobbs, 1993; Bruccoleri et al., 1999). The first set, provided by Dr. Iain Campbell (Scripps Research Institute, San Diego, Calif.), contained probes for intercellular adhesion molecule-1 (ICAM-1), inducible nitric oxide synthase (iNOS), an anti-apoptotic TNFα-inducible early response gene (A20), macrophase-1 antigen (Mac-1), a murine acute-phase response gene homologous to the α-1-antichymotrypsin gene (EB22/5), and GFAP as previously described (Campbell et al., 1994). The second set was purchased from Pharmingen (San Diego, Calif.) and contained probes for tumor necrosis factor-β (TNFβ) and -α (TNFα), interleukin-1α (IL-1α), macrophage inflammatory protein-1α (MIP-1α), and transforming growth factor-β1 (TGF-β1). Each probe set contained probes for L32 and GAPDH. A minimum of 4 animals per group was used in each experiment. Individual fragments were separated by 5% acrylamide/8 M urea sequencing gel electrophoresis and visualized by autoradiography (Hyperfilm-MP film; Amersham, Buckinghamshire, U.K.). Radioactivity in each fragment was visualized by phosphorimager (Molecular Dynamics, Sunnyvale, Calif.) and relative volume determined using Imagequant (Molecular Dynamics) and normalized relative to the corresponding L32 volume.
(§3) Subsequent independent group mean comparisons between each saline-injected genotype or between TMT and saline-injected mice, within each genotype, were conducted using individual one-way ANOVAs for each gene transcript. A statistical significance level was set at p<0.05.
Given the genotype-specific effects in the hippocampus of 8-month-old mice following TMT, additional brain regions were examined. In the cortex, TMT exposure elevated mRNA levels for TNFα and TGF-β1 in the wild-type mice with no elevation seen in the APOE knockout or APOE4 mice (FIG. 7). MIP-1α mRNA levels in both wild-type and APOE4 mice were elevated by TMT with no elevation in APOE knockout mice (FIG. 7).

[2] = test system: microglia; test: Lectin histochemistry for microglia in hippocampus 24 h after TMT; assay type: in vivo; conditions: 24 h post-TMT, wild-type, APOE knockout and APOE4 mice
Description: as §1
Based upon previous studies with TMT exposure (Bruccoleri et al., 1998, 1999), a minimum of six mice per group were examined for morphological changes in the hippocampus 24 h following injection. Animals were lightly anesthetized with CO2 and decapitated and brains were removed from the cranium, bisected in the midsagittal plane, and immersion-fixed in 4% paragormaldehyde/0.1 M phosphate-buffered saline (PBS; pH 7.2) overnight at room temperature. Eight-micron paraffin-embedded sections were stained by routine hematoxylin and eosin (H&E) to visualize tissue cellularity. Astrocytes were identified by immunohistochemistry using polyclonal glial fibrillary acidic protein (GFAP) antibodies (Dako Corp., Carpinteria, Calif.). Briefly, rehydrated sections were treated with 3% H2O2, subjected to heat-induced epitope retrieval (HIER) using a decloaking chamber (Biocare Medical, Walnut Creek, Calif.), and incubated with nonimmune goat serum (1.5:100 dilution in 1% BSA/PBS) prior to incubation with rabbit anti-rat GFAP (1:2000 in 1:1 solution of 1% BSA and 1% powered milk in PBS). Sections were incubated with a secondary IgG antibody followed by ABC (avidin-biotin complex) reagent (Vectastain Elite, Vector Laboratories, Burlingame, Calif.) and detected by 3,3′-diaminobenzidine tetrahydrochloride (DAB) substrate (Sigma-Aldrich Research, St. Louis, Mo.). […]

[3] = test system: TNFβ, TNFα, IL-1α, MIP-1α and TGF-β1 mRNA; test: RNase protection assay, cytokine probe set, cerebellum; assay type: in vivo; conditions: 8-month-old mice, 24 h
Description: as §1
as §2, with “Individual fragments were separated by 5% acrylamide/8 M urea sequencing gel electrophoresis and visualized by autoradiography (Hyperfilm-MP film; Amersham, Buckinghamshire, U.K.).” left out, “volume. […]” for “volume.”

[4] = test system: hippocampal dentate granule cells; test: Hematoxylin and eosin staining of hippocampus 24 h after TMT; assay type: in vivo, mice
Description: as §1
(§4) Based upon previous studies with TMT exposure (Bruccoleri et al., 1998, 1999), a minimum of six mice per group were examined for morphological changes in the hippocampus 24 h following injection. Animals were lightly anesthetized with CO2 and decapitated and brains were removed from the cranium, bisected in the midsagittal plane, and immersion-fixed in 4% paragormaldehyde/0.1 M phosphate-buffered saline (PBS; pH 7.2) overnight at room temperature. Eight-micron paraffin-embedded sections were stained by routine hematoxylin and eosin (H&E) to visualize tissue cellularity. Astrocytes were identified by immunohistochemistry using polyclonal glial fibrillary acidic protein (GFAP) antibodies (Dako Corp., Carpinteria, Calif.). Briefly, rehydrated sections were treated with 3% H2O2, subjected to heat-induced epitope retrieval (HIER) using a decloaking chamber (Biocare Medical, Walnut Creek, Calif.), and incubated with nonimmune goat serum (1.5:100 dilution in 1% BSA/PBS) prior to incubation with rabbit anti-rat GFAP (1:2000 in 1:1 solution of 1% BSA and 1% powered milk in PBS). Sections were incubated with a secondary IgG antibody followed by ABC (avidin-biotin complex) reagent (Vectastain Elite, Vector Laboratories, Burlingame, Calif.) and detected by 3,3′-diaminobenzidine tetrahydrochloride (DAB) substrate (Sigma-Aldrich Research, St. Louis, Mo.). Microglia cells were identified by lectin binding (Bandeiraea Simplicifolia BS-4, 1:10; Sigma Chemical Co.; St. Louis, Mo.) by the method of Streit and Kreutzberg (1987) using HIER. Sites containing microglia bound peroxidase-lectin conjugates were visualized by DAB-H2O2 substrate containing […].

[5] = test system: wild-type, APOE knockout and APOE4 mice; test: Systemic toxicity (tremor, seizures, survival) after a single i.p. dose of TMT
[6] = test system: ICAM-1, iNOS, A20, Mac-1, EB22/5 and GFAP mRNA; test: RNase protection assay, host-response gene probe set, hippocampus; assay type: in vivo, mice; conditions: 24 h; for mRNA levels for Mac-1, A20, and iNOS: any group of mice
Description: as §1, §2, §3

[7] = test system: TNFβ, TNFα, IL-1α, MIP-1α and TGF-β1 mRNA; test: RNase protection assay, cytokine probe set, hippocampus; assay type: in vivo, mice; conditions: for increase of MEP-1α mRNA levels: vs saline
Description: as §1, §2, §3

[8] = test system: astrocytes (GFAP immunoreactivity); test: GFAP immunohistochemistry of astrocytes in hippocampus 24 h after TMT; assay type: in vivo, mice
Description: as §1, §4

[9] = 21-day-old wild-type and APOE knockout mice
[10] = 8-month-old APOE knockout mice, hippocampus, 24 h
[11] = 8-month-old, all animals, hippocampus, 24 h

[CH3][Sn]([CH3])([CH3])[OH] [TMT, trimethyltin hydroxide]
MIP-1α mRNA levels ([1]; 8-month-old APOE knockout mice): no elevation | mRNA levels for TNFα and TGF-β1 ([1]; 8-month-old APOE knockout or APOE4 mice): no elevation | MIP-1α mRNA levels ([1]; 8-month-old wild-type and APOE4 mice): elevated | mRNA levels for TNFα and TGF-β1 ([1]; 8-month-old wild-type mice): elevated | reactive/activated microglia by lectin histochemistry [2]: did not detect reactive/activated microglia | mRNA levels for TNFβ, TNFα, IL-1α, MIP-1α, and TGF-β1 [3]: no effect | neuronal necrosis in dentate granule cells (FIG. 1) ([4]; TMT-exposed wild-type, APOE knockout and APOE4 mice, 2 mg/kg ip, 24 h): Severe neuronal necrosis | neuronal cell death in the hippocampus (dentate granule cells) ([4]; wild-type mice, 24 h after TMT): neuronal cell death was evident | neurons of the pyramidal cell layer ([4]; wild-type mice, 24 h after TMT): no indication of neuronal cell death | decrease in survival rate ([5]; APOE4 mice, 8 months of age, compared to APOE knockout and wild-type): ~40% | decrease in survival rate ([5]; APOE4 mice, 21 days of age, 2.0 mg/kg i.p.): 20% | decrease in survival rate ([5]; APOE knockout mice, 21 days of age, 2.0 mg/kg i.p.): 10% | aggressiveness or seizures ([5]; any of the mice exposed to TMT): No signs of aggressiveness or seizures | EB22 mRNA levels ([6]; 8-month-old APOE knockout and APOE4 mice): elevation | EB22 mRNA levels ([6]; 8-month-old wild-type mice): No elevation | GFAP mRNA levels ([6]; 8-month-old, all groups of mice): elevation | mRNA levels for Mac-1, A20, and iNOS ([6]; 8-month-old): not altered | EB22 mRNA levels ([6]; 21-day-old APOE4 mice): no elevation | EB22 mRNA levels [6, 9]: significant (p<0.05) elevation | GFAP mRNA levels [6, 9]: significantly elevated | ICAM-1 mRNA levels ([6]; 21-day-old, all mice, vs saline): slight but significant elevation | mRNA levels for Mac-1, A20, and iNOS ([6]; 21-day-old): not altered | increase of MEP-1α mRNA levels ([7]; 8-month-old APOE4 mice, hippocampus, 24 h): 3 fold | elevation in MIP-1α mRNA compared to the response in wild-type mice ([7]; 8-month-old APOE knockout mice): less elevation | TNFα mRNA level [7, 10]: distinct lack of elevation; also recorded: No elevation | increase of MEP-1α mRNA levels [7, 10]: 1.3 fold | TNFα mRNA levels ([7]; 8-month-old wild-type and APOE4 mice, hippocampus, 24 h): elevated | increase of MEP-1α mRNA levels ([7]; 8-month-old wild-type mice, hippocampus, 24 h): 3.5 fold | MIP-1α mRNA levels relative to saline-injected mice [7, 11]: significant (p<0.05) elevations | mRNA levels for TNFβ, IL-1α, or TGF-β1 [7, 11]: No significant elevations | IL-1α mRNA levels ([7]; 21-day-old APOE knockout and APOE4 mice, hippocampus, 24 h): elevated | TNFα and TGF-β1 mRNA levels ([7]; 21-day-old wild-type and APOE knockout mice, hippocampus, 24 h): significantly elevated | MIP-1α mRNA levels ([7]; 21-day-old, all mice, hippocampus, 24 h): elevations | induction of TNFα, IL-1α, and MIP-1α by TMT ([7]; APOE knockout mice (discussion)): lack of an induction | induction of TGF-β1 ([7]; APOE knockout mice or those containing the E4 allele, following TMT (discussion)): lack of an induction | astrocyte morphology (FIG. 2) ([8]; 24 h after TMT 2.0 mg/kg ip, compared with saline): thick cell bodies and processes characteristic of astrocyte reactivity | GFAP immunoreactivity in astrocytes ([8]; APOE knockout and APOE4 mice, 24 h after TMT): slight increase in GFAP immunoreactivity | GFAP immunostaining ([8]; wild-type mice, 24 h after TMT): little change

Reference: patent US20030224446A1, “Method of predicting cytokine response to tissue injury” (priority 2001, published 2003)
